Values quoted from earlier work in patent US20130210031A1 (priority 2010, published 2013).

Biological target: EF (Bacillus anthracis, UniProt P40136)
Sequence (P40136 whole entry, looked up): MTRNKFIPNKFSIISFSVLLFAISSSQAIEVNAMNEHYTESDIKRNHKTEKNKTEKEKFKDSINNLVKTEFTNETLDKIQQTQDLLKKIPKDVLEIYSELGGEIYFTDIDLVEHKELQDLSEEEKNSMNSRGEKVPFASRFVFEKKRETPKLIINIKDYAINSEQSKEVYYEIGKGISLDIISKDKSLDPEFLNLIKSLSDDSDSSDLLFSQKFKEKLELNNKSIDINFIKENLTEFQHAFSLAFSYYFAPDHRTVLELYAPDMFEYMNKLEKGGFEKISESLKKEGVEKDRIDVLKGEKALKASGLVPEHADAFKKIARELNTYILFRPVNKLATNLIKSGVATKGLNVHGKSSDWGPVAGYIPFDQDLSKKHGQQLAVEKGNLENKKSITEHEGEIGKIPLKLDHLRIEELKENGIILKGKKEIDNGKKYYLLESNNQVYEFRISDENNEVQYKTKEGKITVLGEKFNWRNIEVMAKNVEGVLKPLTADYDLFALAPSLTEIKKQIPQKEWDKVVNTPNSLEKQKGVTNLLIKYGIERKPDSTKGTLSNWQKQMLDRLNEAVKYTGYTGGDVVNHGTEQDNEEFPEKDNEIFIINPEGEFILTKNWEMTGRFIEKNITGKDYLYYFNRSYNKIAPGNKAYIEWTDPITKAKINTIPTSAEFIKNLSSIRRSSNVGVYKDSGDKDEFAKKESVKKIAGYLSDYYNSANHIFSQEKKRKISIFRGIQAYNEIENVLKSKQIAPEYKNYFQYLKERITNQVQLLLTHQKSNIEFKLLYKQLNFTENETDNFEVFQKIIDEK

Q: Which EF inhibitor potency does the source give for `CC(C)(C)C(=O)OCOP(=O)(COCCn1cnc2c(N)ncnc21)OCOC(=O)C(C)(C)C` [adefovir dipivoxil] here?
A: The EF inhibitor potency was “potent EF inhibitor”.
